The conditions of data set [1]: instrument: TW, calibrated with polyalanine.
For data set [2] the following is noted: instrument: DT, single field, calibrated with Agilent tune mix (Agilent).
The conditions of data set [3]: instrument: DT, stepped-field.
For data set [4] the following is noted: instrument: DT, stepped-field. The source holds these as a separate data set.
The conditions of data set [5]: instrument: DT, stepped-field. The source holds these as a separate data set.

54 molecules from the C3SDB collision cross section collection can be followed below.

“And” between values parts separate entries of the source, which are not always exact repeats. Identical values can stand only once.

On to `Cn1cnc(C[C@H](N)C(=O)O)c1` [1-Methylhistidine], for which the “collision cross section (N2)” value in data set [1] ([M+H]+) is 129 Å²; in data set [2] ([M+H]+), 133.1 Å²; in data set [2] ([M-H]-), 139.64 Å².

With `O=C(O)[C@H](O)[C@@H](O)[C@H](O)[C@H](O)COP(=O)(O)O` [6-Phosphogluconate], in data set [1] ([M+Na]+), the “collision cross section (N2)” value was determined as 159 Å².

`Nc1ncnc2c1ncn2[C@@H]1O[C@H](COP(=O)(O)OP(=O)(O)O)[C@@H](O)[C@H]1O` [ADP]: the “collision cross section (N2)” value in data set [1] ([M+H]+) is reported as 181 Å². Still for that read-out and setting: under `NC(=O)c1ncn([C@@H]2O[C@H](CO)[C@@H](O)[C@H]2O)c1N` [Acadesine] stands 152 Å². `CC(=O)O[C@H](CC(=O)[O-])C[N+](C)(C)C` [Acetylcarnitine]: the “collision cross section (N2)” value in data set [1] ([M+H]+) is recorded as 142 Å²; in data set [2] ([M+H]+) it was 143 Å².

With `Nc1ncnc2nc[nH]c12` [Adenine], the “collision cross section (N2)” value in data set [1] ([M+H]+) is on record as 119 Å²; in data set [3] ([M+H]+), 127.9 Å²; in data set [2] ([M+H]+), 125.1 Å². Regarding `Nc1ncnc2c1ncn2[C@@H]1O[C@H](CO)[C@@H](O)[C@H]1O` [Adenosine], the “collision cross section (N2)” value in data set [1] ([M+H]+) came out at 151 Å²; in data set [3] ([M+H]+) it was 156.97 Å²; in data set [3] ([M+Na]+), 170.07 Å²; in data set [2] ([M+H]+) it was 155.7 Å². Regarding `NC(=O)C[C@H](N)C(=O)O` [Asparagine], the “collision cross section (N2)” value in data set [1] ([M+H]+) turned out to be 118 Å². Still for that read-out and setting: next, `Nc1ccn([C@@H]2O[C@H](COP(=O)(O)O)[C@@H](O)[C@H]2O)c(=O)n1` [CMP]: 163 Å².

On to `N[C@@H](CS)C(=O)O` [Cysteine], for which the “collision cross section (N2)” value in data set [1] ([M+H]+) stood at 113 Å². In the case of `N[C@@H](CSSC[C@H](N)C(=O)O)C(=O)O` [Cystine], the “collision cross section (N2)” value in data set [1] ([M+H]+) is reported as 145 Å². `Nc1ccn([C@@H]2O[C@H](CO)[C@@H](O)[C@H]2O)c(=O)n1` [Cytidine]: the “collision cross section (N2)” value is recorded as 148 Å² in data set [1] ([M+H]+) and 159.5 Å² in data set [2] ([M+Na]+). Take `CN(C)CC(=O)O` [Dimethylglycine]: the “collision cross section (N2)” value in data set [1] ([M+H]+) turned out to be 116 Å²; in data set [2] ([M+H]+), 119.7 Å². `Nc1nc(=O)c2nc(CNc3ccc(C(=O)N[C@@H](CCC(=O)O)C(=O)O)cc3)cnc2[nH]1` [Folic acid]: the “collision cross section (N2)” value in data set [1] ([M+Na]+) is recorded as 202 Å². Consider `Nc1nc(=O)c2ncn([C@@H]3O[C@H](COP(=O)(O)OP(=O)(O)OP(=O)(O)O)[C@@H](O)[C@H]3O)c2[nH]1` [GTP], for which the “collision cross section (N2)” value in data set [1] ([M+H]+) came out at 196 Å².

Consider `N[C@@H](CCC(=O)O)C(=O)O` [Glutamic acid], for which, in data set [1] ([M+H]+), the “collision cross section (N2)” value is 123 Å². Consider `NC(=O)CC[C@H](N)C(=O)O` [Glutamine], for which the “collision cross section (N2)” value in data set [1] ([M+H]+) worked out at 124 Å²; in data set [3] ([M+H]+) it was 133.45 Å²; in data set [3] ([M+Na]+), 138.11 Å². As for `Nc1nc(=O)c2ncn([C@@H]3O[C@H](CO)[C@@H](O)[C@H]3O)c2[nH]1` [Guanosine], the “collision cross section (N2)” value in data set [1] ([M+H]+) is 160 Å²; in data set [3] ([M+H]+), 165.02 Å²; in data set [3] ([M+Na]+), 177.25 Å²; in data set [2] ([M+Na]+), 174.6 Å².

Take `N[C@@H](Cc1cnc[nH]1)C(=O)O` [Histidine]: the “collision cross section (N2)” value in data set [1] ([M+H]+) is on record as 127 Å². In the case of `N[C@@H](CCS)C(=O)O` [Homocysteine], the “collision cross section (N2)” value in data set [1] ([M+H]+) is 124 Å²; in data set [3] ([M+H]+), 130.53 Å². With `O=C(O)[C@@H]1C[C@@H](O)CN1` [Hydroxyproline], the “collision cross section (N2)” value in data set [1] ([M+H]+) worked out at 122 Å²; in data set [2] ([M+H]+), 128.1 Å². As to `O=c1nc[nH]c2nc[nH]c12` [Hypoxanthine], the “collision cross section (N2)” value in data set [1] ([M+H]+) was found to be 120 Å²; in data set [3] ([M+H]+), 135.79 Å²; in data set [3] ([M+Na]+), 138.88 Å²; in data set [2] ([M+H]+) it was 127.1 Å². Consider `O=c1nc[nH]c2c1ncn2[C@@H]1O[C@H](CO)[C@@H](O)[C@H]1O` [Inosine], for which the “collision cross section (N2)” value is 153 Å² in data set [1] ([M+H]+), 159.25 Å² in data set [3] ([M+H]+), 175.37 Å² in data set [3] ([M+Na]+) and 170.7 Å² in data set [2] ([M+Na]+). Consider `CCCCCCCCCCCCCCCC(=O)O[C@H](CO)COP(=O)(O)O` [LPA(16:0)], for which the “collision cross section (N2)” value in data set [4] ([M-H]-) amounted to 194.5 Å². With `CCCCCCC/C=C\CCCCCCCC(=O)OC[C@@H](O)COP(=O)(O)OC[C@@H](O)CO` [LPG(17:1)], in data set [4] ([M-H]-), the “collision cross section (N2)” value was 213.5 Å².

Turning to `CCCCCCCC/C=C\CCCCCCCC(=O)OC[C@@H](O)COP(=O)(O)OC[C@@H](O)CO` [LPG(18:1)], the “collision cross section (N2)” value in data set [4] ([M-H]-) is 217.9 Å² and 216.9 Å². On the same count and under the same terms, next, `CCCCCC/C=C\CCCCCCCC(=O)OC[C@@H](O)COP(=O)(O)O[C@H]1C(O)C(O)C(O)[C@@H](O)C1O` (some centres undefined) [LPI(16:1)]: 226.1 Å².

With `CC(C)C[C@H](N)C(=O)O` [Leucine], the “collision cross section (N2)” value in data set [1] ([M+H]+) worked out at 128 Å².

Consider `OC[C@@H](O)[C@@H](O)[C@H](O)[C@H](O)CO` [Mannitol], for which the “collision cross section (N2)” value in data set [1] ([M+Na]+) is listed as 137 Å²; in data set [5] ([M+Li]+) it was 144.5 Å²; in data set [5] ([M+Na]+), 140.6 Å². Consider `OC[C@H]1OC(O)[C@@H](O)[C@@H](O)[C@@H]1O` (some centres undefined) [Mannose], for which, in data set [1] ([M+Na]+), the “collision cross section (N2)” value is recorded as 138 Å². `C[C@@](O)(CCO)CC(=O)O` [Mevalonic acid]: in data set [1] ([M+Na]+), the “collision cross section (N2)” value is recorded as 128 Å². For the molecule `NC(=O)c1cccnc1` [Niacinamide], the “collision cross section (N2)” value in data set [1] ([M+H]+) is on record as 118 Å². In the case of `CCCC/C=C\C/C=C\CCCCCCCC(=O)O[C@H](COC(=O)CCCCCCCCCCCC)COP(=O)([O-])OCC[N+](C)(C)C` [PC(14:1/16:1)], the “collision cross section (N2)” value in data set [4] ([M+H]+) is 279.6 Å².

Take `CCCCCCCCCC/C=C\CCCCCCCCCC(=O)O[C@H](COC(=O)CCCCCCCCCCC)COP(=O)([O-])OCC[N+](C)(C)C` [PC(16:0/18:1)]: the “collision cross section (N2)” value in data set [4] ([M+H]+) is 291.4 Å² and 299.1 Å².

For `CCCCC/C=C\C/C=C\CCCCCCCCCC(=O)O[C@H](COC(=O)CCCCCCCCCCCCC)COP(=O)([O-])OCC[N+](C)(C)C` [PC(16:1/18:1)], the “collision cross section (N2)” value in data set [4] ([M+H]+) is 295.3 Å² and 295.1 Å². As to `CCCC/C=C\CCCCCCCC(=O)OC[C@H](COP(=O)([O-])OCC[N+](C)(C)C)OC(=O)CCCCCCCCCCCCCCCCCCCCC` [PC(18:0/18:1)], the “collision cross section (N2)” value in data set [4] ([M+H]+) is 306.1 Å² and 306 Å². On to `CCCCC/C=C\C/C=C\CCCCCCCC(=O)O[C@H](COCCCCCCCCCCCCCCCC)COP(=O)([O-])OCC[N+](C)(C)C` [PC(o34:2)], for which, in data set [4] ([M+H]+), the “collision cross section (N2)” value was 297.2 Å². Consider `CCCCC/C=C\C/C=C\CCCCCCCC(=O)O[C@H](COCCCCCCCCCCCCCCCCCC)COP(=O)([O-])OCC[N+](C)(C)C` [PC(o36:2)], for which the “collision cross section (N2)” value in data set [4] ([M+H]+) is given as 303.1 Å². Consider `CCCCCC/C=C\CCCCCCCCCC(=O)O[C@H](COC(=O)CCCCCCCCCCCCCCC)COP(=O)(O)OCCN` [PE(16:0/18:1)], for which the “collision cross section (N2)” value in data set [4] ([M+H]+) turned out to be 286.1 Å².

Turning to `CCCCCCCC/C=C\CCCCCCCCCC(=O)O[C@H](COC(=O)CCCCCCCCCCCC)COP(=O)(O)OCCN` [PE(33:1)], the “collision cross section (N2)” value in data set [4] ([M-H]-) is listed as 266.7 Å². Turning to `CCCCCCCC/C=C\CCCCCCCCCC(=O)O[C@H](COC(=O)CCCCCCCCCCC)COP(=O)(O)OC[C@@H](O)CO` [PG(16:0/16:1)], the “collision cross section (N2)” value in data set [4] ([M-H]-) amounted to 268.7 Å². In the case of `CCCCCCCCCC/C=C\CCCCCCCCCC(=O)O[C@H](COC(=O)CCCCCCCCCCC)COP(=O)(O)OC[C@@H](O)CO` [PG(16:0/18:1)], the “collision cross section (N2)” value in data set [4] ([M-H]-) was 276.7 Å² and 277.1 Å² and 277 Å². As to `CCCCCCCCCCCCCCCC(=O)OC[C@H](COP(=O)(O)O[C@H]1C(O)C(O)C(O)[C@@H](O)C1O)OC(=O)CCCCCCCCCCCCC` (some centres undefined) [PI(14:0/16:0)], the “collision cross section (N2)” value in data set [4] ([M-H]-) is 280.1 Å². As for `CCCCC/C=C\C/C=C\CCCCCCCC(=O)O[C@H](COC(=O)CCCCCCCCCCC)COP(=O)(O)O[C@H]1C(O)C(O)C(O)[C@@H](O)C1O` (some centres undefined) [PI(14:1/16:1)], in data set [4] ([M-H]-), the “collision cross section (N2)” value is given as 283.6 Å². For `C=C(OP(=O)(O)O)C(=O)O` [Phosphoenolpyruvate], in data set [1] ([M+Na]+), the “collision cross section (N2)” value worked out at 131 Å². In the case of `O=C(O)[C@@H]1CCCN1` [Proline], the “collision cross section (N2)” value in data set [1] ([M+H]+) was found to be 118 Å². As to `C[C@@H](O)[C@H](N)C(=O)O` [Threonine], the “collision cross section (N2)” value in data set [1] ([M+H]+) is listed as 122 Å². As to `O=c1ccn([C@@H]2O[C@H](CO)[C@@H](O)[C@H]2O)c(=O)[nH]1` [Uridine], the “collision cross section (N2)” value stood at 152 Å² in data set [1] ([M+H]+), 166 Å² in data set [3] ([M+Na]+) and 160.1 Å² in data set [2] ([M+Na]+). As to `O=c1[nH]c(=O)c2[nH]cnc2[nH]1` [Xanthine], the “collision cross section (N2)” value in data set [1] ([M+H]+) is listed as 124 Å²; in data set [3] ([M+H]+), 138.11 Å²; in data set [3] ([M+Na]+) it was 152.65 Å²; in data set [2] ([M+H]+), 130.3 Å². Regarding `Nc1ncnc2c1ncn2[C@H]1C[C@H](O)[C@@H](COP(=O)(O)O)O1` [dAMP], the “collision cross section (N2)” value in data set [1] ([M+H]+) is 164 Å². Regarding `Nc1ccn([C@H]2C[C@H](O)[C@@H](COP(=O)(O)O)O2)c(=O)n1` [dCMP], the “collision cross section (N2)” value in data set [1] ([M+Na]+) is 161 Å². As for `N[C@@H](CCC(=O)N[C@@H](CSSC[C@H](NC(=O)CC[C@H](N)C(=O)O)C(=O)NCC(=O)O)C(=O)NCC(=O)O)C(=O)O` [glutathione disulfide], the “collision cross section (N2)” value in data set [1] ([M+H]+) is 227 Å². Consider `CCCCCCCCCCCCCCCC(=O)OC(CC(=O)[O-])C[N+](C)(C)C` (centres undefined) [palmitoylcarnitine], for which the “collision cross section (N2)” value in data set [1] ([M+H]+) is listed as 217 Å². As to `Cc1ncc(C[n+]2csc(CCO)c2C)c(N)n1` [thiamine], in data set [1] ([M]+), the “collision cross section (N2)” value stood at 159 Å².
